Experimental data from US12624044B2, “SMARCA degraders and uses thereof” (Kymera Therapeutics, Inc., priority 2019, dated 2026).

Target: SMARCA2 (Homo sapiens, UniProt P51531)
Test: MSD SMARCA2 degradation in A549 cell line
Format: cell-based
Details: 24 h; for Dmax: A549, A549 cells; for DC50: A549 cells, read-out: SMARCA2 MSD A549 degradation 24 h: Average external-Abs DC50
Description: Cells were seeded into 96-well plates (A549 cells: 2×10^4 cells/well/100 ul media) abd incubated overnight. The next day, 200 nl compound were added into the intermediate plate with Echo (Labcyte 550) from source plate containing a 3-fold serial dilution from top concentration of 1 mM. The culture medium was changed with 80 ul of fresh medium and 80 ul of 2× compound solution was added into the well to make a final concentration of 1000 nM, 333.3 nM, 111.1 nM, 37.04 nM, 12.35 nM, 4.115 nM, 1.372 nM, 0.457 nM, 0.152 nM and 0 nM (DMSO). The wells were mixed and then incubated for 24 hours. The media was aspirated from the cultures and 60 ul pre-chilled PIPA lysis buffer (Boston BioProducts BP-115D) with protease/phosphatase inhibitor (Roche 05892791001/Roche 04906837001) was added into the well to lyze the cells for 20 minutes at 4° C. The MSD plate (L15XA) was coated with 40 ul cell lysate and incubated at 4° C. overnight. The next day, the plate was washed three times with TBST (CST #9997S), 150 ul/well. The MSD plates was blocked with 150 ul blocking buffer per well and shaked for 1 hr at RT, 600 rpm. The blocking buffer was 3% Blocker A (MSD, R93BA-4) in TBST. The MSD plate was washed three times with 150 ul/well of TBST and 25 ul/well of detection antibody (Rabbit anti-SMARCA2/BRM antibody, 100 μg/ml, ab223735) was added at final concentration of 1 ug/ml diluted in 1% Blocking buffer and shaken for 1 hour at RT, 600 rpm. The MSD plate was washed three times with 150 ul/well of TBST and 25 ul/well of SULFO-TAG anti-rabbit antibody (MSD, R32AB-1) was added at final concentration of 1 ug/ml diluted in 1% Blocking buffer and shaken for 1 hour at RT, 600 rpm. The MSD plate was washed three times with 150 ul/well of TBST and 150 ul/well of 2×MSD reading buffer diluted from 4× (MSD, R92TC-2) with water was added. Lastly, the MSD instrument was read.
The letter codes for the percentage of SMARCA2 degradation after 24 hours (Dmax %) include: A (>90% degradation), B (>70-90% degradation), C (50-70% degradation), and D (<50% degradation).

Chain of SMARCA2 (P51531 whole entry): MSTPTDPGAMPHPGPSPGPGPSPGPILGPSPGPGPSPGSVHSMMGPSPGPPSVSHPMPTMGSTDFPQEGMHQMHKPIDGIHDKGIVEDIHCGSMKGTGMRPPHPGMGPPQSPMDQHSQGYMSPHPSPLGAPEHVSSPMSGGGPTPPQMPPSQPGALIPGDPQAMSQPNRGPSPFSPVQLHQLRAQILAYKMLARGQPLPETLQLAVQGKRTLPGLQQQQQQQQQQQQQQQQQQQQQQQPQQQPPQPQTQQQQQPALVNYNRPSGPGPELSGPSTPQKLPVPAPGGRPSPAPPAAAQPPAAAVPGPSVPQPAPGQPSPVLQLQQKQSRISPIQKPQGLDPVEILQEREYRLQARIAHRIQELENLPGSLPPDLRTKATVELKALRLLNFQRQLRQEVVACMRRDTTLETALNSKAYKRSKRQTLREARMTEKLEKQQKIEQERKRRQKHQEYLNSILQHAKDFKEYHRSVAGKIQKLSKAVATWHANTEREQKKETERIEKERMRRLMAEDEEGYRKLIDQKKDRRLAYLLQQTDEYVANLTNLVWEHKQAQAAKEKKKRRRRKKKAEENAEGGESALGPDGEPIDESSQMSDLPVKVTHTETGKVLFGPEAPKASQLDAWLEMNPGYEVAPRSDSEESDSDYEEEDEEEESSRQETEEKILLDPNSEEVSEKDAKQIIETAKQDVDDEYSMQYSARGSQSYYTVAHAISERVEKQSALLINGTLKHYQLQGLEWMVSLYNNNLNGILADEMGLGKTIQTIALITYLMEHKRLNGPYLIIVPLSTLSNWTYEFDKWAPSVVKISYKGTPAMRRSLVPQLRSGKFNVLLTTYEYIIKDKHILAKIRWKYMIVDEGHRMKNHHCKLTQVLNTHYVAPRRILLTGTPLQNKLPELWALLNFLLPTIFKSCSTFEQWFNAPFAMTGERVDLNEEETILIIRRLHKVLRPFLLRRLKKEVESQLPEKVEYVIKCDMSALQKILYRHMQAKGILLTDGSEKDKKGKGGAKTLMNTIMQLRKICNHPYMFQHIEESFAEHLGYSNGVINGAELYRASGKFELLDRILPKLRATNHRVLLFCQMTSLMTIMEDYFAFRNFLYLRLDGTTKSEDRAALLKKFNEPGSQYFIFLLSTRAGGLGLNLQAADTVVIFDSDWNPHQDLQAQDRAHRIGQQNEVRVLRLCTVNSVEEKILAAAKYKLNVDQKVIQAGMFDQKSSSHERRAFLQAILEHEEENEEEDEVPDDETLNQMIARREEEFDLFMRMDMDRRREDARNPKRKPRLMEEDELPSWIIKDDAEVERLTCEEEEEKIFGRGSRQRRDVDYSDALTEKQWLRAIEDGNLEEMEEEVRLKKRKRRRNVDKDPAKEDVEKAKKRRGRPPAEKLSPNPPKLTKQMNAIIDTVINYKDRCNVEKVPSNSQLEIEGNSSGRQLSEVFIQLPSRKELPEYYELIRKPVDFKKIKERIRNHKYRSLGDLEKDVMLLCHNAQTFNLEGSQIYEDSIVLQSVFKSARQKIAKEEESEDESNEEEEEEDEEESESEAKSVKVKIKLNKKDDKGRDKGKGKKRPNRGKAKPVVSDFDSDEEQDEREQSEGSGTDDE

Row | SMILES | Dmax [%] | DC50 [nM]
1 | Cc1ncsc1-c1ccc(CNC(=O)[C@@H]2C[C@@H](O)CN2C(=O)[C@@H](NC(=O)[C@H]2CC[C@H](Cc3cnc(N4C5CCC4CN(c4cc(-c6ccccc6O)nnc4N)C5)nc3)CC2)C(C)(C)C)c(C(F)(F)F)c1 [I-422] | > 90 | 100 to 500
2 | Cc1ncsc1-c1ccc(CNC(=O)[C@@H]2C[C@@H](O)CN2C(=O)[C@@H](NC(=O)[C@H]2CC3(C[C@H](CN4CCC(c5cnc(N6C7CCC6CN(c6cc(-c8ccccc8O)nnc6N)C7)nc5)CC4)C3)C2)C(C)(C)C)cc1 (stereo partly shown) [I-426] | > 90 | 100 to 500
3 | Cc1ncsc1-c1ccc(CNC(=O)[C@@H]2C[C@@H](O)CN2C(=O)[C@@H](NC(=O)C23CCC(CN(C)Cc4cnc(N5C6CCC5CN(c5cc(-c7ccccc7O)nnc5N)C6)nc4)(CC2)CC3)C(C)(C)C)cc1 [I-429] | 70 to 90 | 100 to 500
4 | Cc1ncsc1-c1ccc(CNC(=O)[C@@H]2C[C@@H](O)CN2C(=O)[C@@H](NC(=O)[C@H]2CC3(C[C@H](CN4CCC(n5cc(-c6cc(-c7ccccc7O)nnc6N)cn5)CC4)C3)C2)C(C)(C)C)cc1 (stereo partly shown) [I-432] | > 90 | 100 to 500
5 | Cc1ncsc1-c1ccc(CNC(=O)[C@@H]2C[C@@H](O)CN2C(=O)[C@@H](NC(=O)[C@H]2CC[C@@H](N3CCC(N4CCC(n5cc(-c6cc(-c7ccccc7O)nnc6N)cn5)CC4)CC3)CC2)C(C)(C)C)cc1 [I-435] | < 50 | > 1000
6 | Cc1ncsc1-c1ccc(CNC(=O)[C@@H]2C[C@@H](O)CN2C(=O)[C@@H](NC(=O)[C@H]2CC[C@@H](N3CC(c4cnc(N5C6CCC5CN(c5cc(-c7ccccc7O)nnc5N)C6)nc4)C3)CC2)C(C)(C)C)cc1 [I-436] | > 90 | 100 to 500
7 | Cc1ncsc1-c1ccc(CNC(=O)[C@@H]2C[C@@H](O)CN2C(=O)[C@@H](NC(=O)[C@H]2CC[C@@H](c3cnc(N4C5CCC4CN(c4cc(-c6ccccc6O)nnc4N)C5)nc3C)CC2)C(C)(C)C)cc1 [I-440] | > 90 | 100 to 500
8 | Cc1ncsc1-c1ccc(CNC(=O)[C@@H]2C[C@@H](O)CN2C(=O)[C@@H](NC(=O)[C@H]2CC3CCC2C[C@@H]3c2cnc(N3C4CCC3CN(c3cc(-c5ccccc5O)nnc3N)C4)nc2)C(C)(C)C)cc1 (stereo partly shown) [I-441] | > 90 | 100 to 500
9 | Cc1ncsc1-c1ccc(CNC(=O)[C@@H]2C[C@@H](O)CN2C(=O)[C@@H](NC(=O)C2CC3CCC2C[C@H]3c2cnc(N3C4CCC3CN(c3cc(-c5ccccc5O)nnc3N)C4)nc2)C(C)(C)C)c(C(F)(F)F)c1 (stereo partly shown) [I-442] | 50 to 70 | 501 to 1000
10 | Cc1ncsc1-c1ccc(CNC(=O)[C@@H]2C[C@@H](O)CN2C(=O)[C@@H](NC(=O)[C@H]2C[C@]3(C[C@H](CN(C)Cc4cnc(N5C6CCC5CN(c5cc(-c7ccccc7O)nnc5N)C6)nc4)C3)C2)C(C)(C)C)cc1 (stereo partly shown) [I-443] |  | 100 to 500
11 | Cc1ncsc1-c1ccc(CNC(=O)[C@@H]2C[C@@H](O)CN2C(=O)[C@@H](NC(=O)CCN2CCC(n3cc(-c4cc(-c5ccccc5O)nnc4N)cn3)CC2)C(C)(C)C)cc1 [I-458] | < 50 | > 1000
12 | Cc1ncsc1-c1ccc(CNC(=O)[C@@H]2C[C@@H](O)CN2C(=O)[C@@H](NC(=O)CCN(C)Cc2ccc(N3CCN(c4cc(-c5ccccc5O)nnc4N)CC3)cc2)C(C)(C)C)cc1 [I-463] | < 50 | > 1000
13 | Cc1ncsc1-c1ccc(CNC(=O)[C@@H]2C[C@@H](O)CN2C(=O)[C@@H](NC(=O)CCCN(C)Cc2ccc(N3CCN(c4cc(-c5ccccc5O)nnc4N)CC3)cc2)C(C)(C)C)cc1 [I-464] | < 50 | > 1000
14 | Cc1ncsc1-c1ccc(CNC(=O)[C@@H]2C[C@@H](O)CN2C(=O)[C@@H](NC(=O)CCN2CCC(Cn3cc(-c4cc(-c5ccccc5O)nnc4N)cn3)CC2)C(C)(C)C)cc1 [I-466] | < 50 | > 1000
15 | Cc1ncsc1-c1ccc(CNC(=O)[C@@H]2C[C@@H](O)CN2C(=O)[C@@H](NC(=O)CCN2CCC[C@@H](Cn3cc(-c4cc(-c5ccccc5O)nnc4N)cn3)C2)C(C)(C)C)cc1 [I-470] | < 50 | > 1000
16 | Cc1ncsc1-c1ccc(CNC(=O)[C@@H]2C[C@@H](O)CN2C(=O)[C@@H](NC(=O)CCCN2CCN(Cc3ccc(-c4cc(-c5ccccc5O)nnc4N)cc3)CC2)C(C)(C)C)cc1 [I-475, (2S,4R)-1-((S)-2-(4-(4-(4-(3-amino-6-(2-hydroxyphenyl)pyridazin-4-yl)benzyl)piperazin-1-yl)butanamido)-3,3-dimethylbutanoyl)-4-hydroxy-N-(4-(4-methylthiazol-5-yl)benzyl)pyrrolidine-2-carboxamide] | < 50 | > 1000
17 | Cc1ncsc1-c1ccc(CNC(=O)[C@@H]2C[C@@H](O)CN2C(=O)[C@@H](NC(=O)CNCc2cccc(C#Cc3cc(NC(=O)Nc4cc(F)ncc4CO)ccn3)c2)C(C)(C)C)cc1 [I-487, (2S,4R)-1-((S)-2-(2-((3-((4-(3-(2-fluoro-5-(hydroxymethyl)pyridin-4-yl)ureido)pyridin-2-yl)ethynyl)benzyl)amino)acetamido)-3,3-dimethylbutanoyl)-4-hydroxy-N-(4-(4-methylthiazol-5-yl)benzyl)pyrrolidine-2-carboxamide] | < 50 | > 1000
18 | Cc1ncsc1-c1ccc(CNC(=O)[C@@H]2C[C@@H](O)CN2C(=O)[C@@H](NC(=O)CCCNCc2cccc(C#Cc3cc(NC(=O)Nc4cc(F)ncc4CO)ccn3)c2)C(C)(C)C)cc1 [I-488] | < 50 | > 1000
19 | Cc1ncsc1-c1ccc(CNC(=O)[C@@H]2C[C@@H](O)CN2C(=O)[C@@H](NC(=O)CCCCCNCc2cccc(C#Cc3cc(NC(=O)Nc4cc(F)ncc4CO)ccn3)c2)C(C)(C)C)cc1 [I-489] | < 50 | > 1000
20 | Cc1ncsc1-c1ccc(CNC(=O)[C@@H]2C[C@@H](O)CN2C(=O)[C@@H](NC(=O)CCCCCCCNCc2cccc(C#Cc3cc(NC(=O)Nc4cc(F)ncc4CO)ccn3)c2)C(C)(C)C)cc1 [I-490] | < 50 | > 1000
21 | Cc1ncsc1-c1ccc(CNC(=O)[C@@H]2C[C@@H](O)CN2C(=O)[C@@H](NC(=O)CNCc2ccc(C#Cc3cc(NC(=O)Nc4cc(F)ncc4CO)ccn3)cc2)C(C)(C)C)cc1 [I-491] | < 50 | > 1000
22 | Cc1ncsc1-c1ccc(CNC(=O)[C@@H]2C[C@@H](O)CN2C(=O)[C@@H](NC(=O)CCCCCNCc2ccc(C#Cc3cc(NC(=O)Nc4cc(F)ncc4CO)ccn3)cc2)C(C)(C)C)cc1 [I-493] | < 50 | > 1000
23 | Cc1ncsc1-c1ccc(CNC(=O)[C@@H]2C[C@@H](O)CN2C(=O)[C@@H](NC(=O)CCCCCCCNCc2ccc(C#Cc3cc(NC(=O)Nc4cc(F)ncc4CO)ccn3)cc2)C(C)(C)C)cc1 [I-494] | < 50 | > 1000
24 | Cc1ncsc1-c1ccc(CNC(=O)[C@@H]2C[C@@H](O)CN2C(=O)[C@@H](NC(=O)CCCN(C)CC#Cc2cnc(N3C4CCC3CN(c3cc(-c5ccccc5O)nnc3N)C4)nc2)C(C)(C)C)cc1 [I-497] | < 50 | > 1000
25 | Cc1ncsc1-c1ccc(CNC(=O)[C@@H]2C[C@@H](O)CN2C(=O)[C@@H](NC(=O)CN2CCC(c3cccc(C#Cc4cc(NC(=O)Nc5cc(F)ncc5CO)ccn4)c3)CC2)C(C)(C)C)cc1 [I-498] | < 50 | > 1000
